US10793574B2, “TYK2 inhibitors and uses thereof” (Nimbus Lakshmi, Inc., priority 2016, dated 2020)

Experiments:
TYK2 JH1 kinase = TYK2 JH1 kinase (Homo sapiens (Human), UniProt P29597); assay: Tyk2 radioactive kinase assay; assay type: biochemical; conditions: active kinase assay, ATP 10 μM
Method: (§1) Peptide substrate, [KKSRGDYMTMQIG], (20 μM) is prepared in reaction buffer (20 mM Hepes pH 7.5, 10 mM MgCl2, 1 mM EGTA, 0.02% Brij35, 0.02 mg/mL BSA, 0.1 mM […], 2 mM DTT, 1% DMSO. TYK2 (Invitrogen) kinase is added, followed by compounds in DMSO. 33PATP is added to initiate the reaction in ATP at 10 μM. Kinase reaction is incubated for 120 min at room temp and reactions are spotted onto P81 ion exchange paper (Whatman #3698-915), and then washed extensively in 0.75% phosphoric acid, prior to reading the radioactivity counts. For JAK2 (Invitrogen) kinase assay the peptide substrate poly[Glu:Tyr](4:1), 0.2 mg/ml is used, in the reaction carried out the same as for TYK2.

JAK2 JH1 kinase = JAK2 JH1 kinase (Homo sapiens (Human), UniProt O60674); assay: JAK2 radioactive kinase assay; assay type: biochemical; conditions: active kinase assay, ATP 10 μM
Sequence of JAK2 JH1 kinase (O60674 808-1132): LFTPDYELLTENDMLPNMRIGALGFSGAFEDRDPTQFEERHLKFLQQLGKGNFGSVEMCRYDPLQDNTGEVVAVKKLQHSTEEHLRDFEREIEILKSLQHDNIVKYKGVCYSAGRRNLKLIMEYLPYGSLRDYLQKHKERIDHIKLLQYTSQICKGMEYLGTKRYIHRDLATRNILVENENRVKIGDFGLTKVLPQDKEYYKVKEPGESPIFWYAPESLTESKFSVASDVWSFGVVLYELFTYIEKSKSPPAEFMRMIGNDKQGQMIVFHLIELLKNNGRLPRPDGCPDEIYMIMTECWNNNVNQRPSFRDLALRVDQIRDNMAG
Method: as §1

Sequence of TYK2 JH1 kinase (P29597 833-1187): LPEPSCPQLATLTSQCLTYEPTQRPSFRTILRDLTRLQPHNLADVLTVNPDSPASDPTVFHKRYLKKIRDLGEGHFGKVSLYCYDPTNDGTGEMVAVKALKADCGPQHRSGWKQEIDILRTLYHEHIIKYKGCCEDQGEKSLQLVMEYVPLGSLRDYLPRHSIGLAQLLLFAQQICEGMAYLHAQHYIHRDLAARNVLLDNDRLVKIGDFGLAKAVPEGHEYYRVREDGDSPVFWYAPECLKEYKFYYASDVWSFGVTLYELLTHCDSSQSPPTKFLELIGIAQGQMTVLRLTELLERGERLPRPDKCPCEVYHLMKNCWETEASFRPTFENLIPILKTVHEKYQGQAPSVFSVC

Structure (SMILES)	inhibitory activity against TYK2 JH1 kinase function (TYK2 JH1 kinase)	inhibitory activity against JAK2 JH1 kinase function (JAK2 JH1 kinase)
COCc1ccnc(Nc2cc(Nc3cccc(-c4nnn(C)n4)c3OC)c3c(=O)n(C)[nH]c3n2)c1 [Compound I-2, 4-((2-methoxy-3-(2-methyl-2H-tetrazol-5-yl)phenyl)amino)-6-((4-(methoxymethyl)pyridin-2-yl)amino)-2-methyl-1,2-dihydro-3H-pyrazolo[3,4-b]pyridin-3-one]	no detectable inhibitory activity	–
COC(=O)c1nnc(-c2cnc(NC(=O)C3CC3)cc2Nc2cccc(-c3ncn(C)n3)c2OC)o1 [VIII-4, methyl 5-(6-(cyclopropanecarboxamido)-4-((2-methoxy-3-(1-methyl-1H-1,2,4-triazol-3-yl)phenyl)amino)pyridin-3-yl)-1,3,4-oxadiazole-2-carboxylate]	no detectable inhibitory activity	no detectable inhibitory activity
COc1c(Nc2cc(NC(=O)C3CC3)ncc2-c2ncc(F)s2)cccc1-c1nnn(C)n1 [VIII-2, N-(5-(5-fluorothiazol-2-yl)-4-((2-methoxy-3-(2-methyl-2H-tetrazol-5-yl)phenyl)amino)pyridin-2-yl)cyclopropanecarboxamide]	no detectable inhibitory activity	no detectable inhibitory activity
COc1c(Nc2cc(NC(=O)C3CC3)ncc2-c2nnc(C(F)(F)F)o2)cccc1-c1ncn(C)n1 [VIII-3, N-(4-((2-methoxy-3-(1-methyl-1H-1,2,4-triazol-3-yl)phenyl)amino)-5-(5-(trifluoromethyl)-1,3,4-oxadiazol-2-yl)pyridin-2-yl)cyclopropanecarboxamide]	no detectable inhibitory activity	no detectable inhibitory activity
COc1c(Nc2cc(NC(=O)C3CC3)nc3[nH]n(C)c(=O)c23)cccc1-c1nnn(C)n1 [Compound I-1, N-(4-((2-methoxy-3-(2-methyl-2H-tetrazol-5-yl)phenyl)amino)-2-methyl-3-oxo-2,3-dihydro-1H-pyrazolo[3,4-b]pyridin-6-yl)cyclopropanecarboxamide]	no detectable inhibitory activity	–
COc1c(Nc2cc(NC(=O)C3CC3)ncc2-c2ncc(Cl)s2)cccc1-c1nnn(C)n1 [VIII-1, N-(5-(5-chlorothiazol-2-yl)-4-((2-methoxy-3-(2-methyl-2H-tetrazol-5-yl)phenyl)amino)pyridin-2-yl)cyclopropanecarboxamide]	no detectable inhibitory activity	no detectable inhibitory activity
